In data set [1] the target is T1, human HO-1 (hHO-1) in transfected astroglia (Homo sapiens, UniProt P09601).
T1 construct: containing the entire protein-coding region (866 bp) of the human HO-1 gene; expressed in transfected cells; host or cells: primary rat astrocytes, transient transfection with pcDNA3.1/Zeo.CMV.Flag.hHO-1 (Lipofectamine 2000)
T1 sequence (P09601 1-288): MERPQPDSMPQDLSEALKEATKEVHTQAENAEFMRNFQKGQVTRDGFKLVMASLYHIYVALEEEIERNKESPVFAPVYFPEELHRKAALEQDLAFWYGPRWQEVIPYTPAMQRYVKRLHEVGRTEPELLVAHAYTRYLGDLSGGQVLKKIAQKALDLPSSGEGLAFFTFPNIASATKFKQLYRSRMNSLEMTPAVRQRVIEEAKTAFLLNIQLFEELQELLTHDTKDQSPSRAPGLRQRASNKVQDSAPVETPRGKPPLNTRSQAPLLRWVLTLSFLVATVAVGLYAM
Put plainly: HO enzyme activity (bilirubin formation) in hHO-1-transfected astrocytes. The class given is cell-based. The conditions noted are these: 6.5 μM. On the procedure:
Upon reaching >90% confluence, 1×10^6 cells were transiently transfected with 4.0 μg of plasmid DNA-Lipofectamine 2000 complex using Lipofectamine 2000 method according to manufacturer instructions (Invitrogen). […] 12 μg of plasmid DNA and 16 μl of Lipofectamine 2000 reagent were diluted in 1.5 mL opti-MEM I reduced serum medium and incubated for 5 minutes at room temperature with gentle mixing. The two solutions were combined, incubated at room temperature for 20 minutes to promote formation of DNA-lipid complexes and administered to the cells. 2 mL opti-MEM I reduced serum medium was added to the flasks to ensure coverage of the monolayer by the transfection mixture. Following incubation for 6 hours at 37° C., the transfection mixture was replaced with 10 mL of complete media without antibiotics.
A young adult male rat was gas-anesthetized, laid on ice and systemically perfused with ice-cold 0.9% NaCl to get rid of all blood from liver. The liver was then excised on ice and transferred to a cold room (4° C.) and cut into small pieces in cold 0.9% NaCl (3 mL per gram of tissue) with surgical scissors in and placed in a 50 mL tube. The tissue chunks were homogenized with an electric tissue homogenizer and centrifuged at 150×g for […] at 4° C. Similarly, all of the following steps, including centrifugations, were performed at 4° C. The supernatant was centrifuged at 18,000×g for 10 min and further at 30,000×g for 30 min. A saturated solution of ammonium sulfate was added to the 30,000×g supernatant to attain 40% saturation and placed on ice for 10 min. The mixture was centrifuged at 10,000×g for 10 min and supernatant was recovered and transferred to a fresh tube. Sixty percent of saturation was achieved by adding saturation solution of ammonium sulfate to the supernatant. The mixed solution was centrifuged again at 10,000×g for 10 min and […]. […] The dialysate was centrifuged at 10,000 g for 10 min and pellet was discarded. The protein concentration of the supernatant was measured with Bradford reagent (BioRad laboratories, Hercules, Calif.) and adjusted to 10 mg/mL with 0.01 M KPO4, pH7.4. The supernatant was aliquoted and stored at −20° C. ready for use.
Cytosol extracts were prepared for HO activity measurement by the method of Ryter (Ryter, Kvam, Tyrrell 2000). Astroglial monolayers were washed with ice-cold PBS and scraped in ice-cold PBS-EDTA (1 mM, pH 8.0) containing 50 μg/mL protease inhibitor (AEBSF), centrifuged at 150×g at 4° C. and resuspended in 20 mM Tris-HCl (pH 7.4) and 0.25 M sucrose containing protease inhibitors. Cell suspensions were sonicated on ice 2×15 s at 20 W and centrifuged for 20 min at 4° C. at 15,000×g. Protein concentration of supernatant was measured with Bradford method. […] Reaction mixtures were incubated at 37° C. in the dark for 60 min with hard vortex every 10 min. […] HO activity was calculated as nanomoles bilirubin per milligram protein per min, assuming an extinction coefficient of 40/mM/cm in chloroform (see FIG. 8).
Cells were rinsed twice with cold PBS (pH 7.4) and scraped in iced lysis buffer consisting of 1% Nonidet P-40, 50 mM Tris.HCl (pH 7.4), 30 mM NaCl, 25 mM β-glycerophosphate, 10 mM EDTA, 10 mM EGTA, 1 mM MgCl2, and protease inhibitors (10 mM sodium fluoride, 50 μg/mL AEBBSF, 5 μg/mL leupeptin, 5 μg/mL pepstatin, 5 μg/mL aprotinin). […] Protein contents were determined using the Bradford method. […]

Data set [2] is described as follows: Pharmacokinetic evaluation of QC-199 in mouse plasma, IV infusion. Type of data set: in vivo. On the procedure: Regular male CD1 mice, 6 weeks old, were obtained from Charles River Laboratories, St. Zotique, PQ, Canada. The mice weighed 22-28 g. The experiments were approved by the Animal Care Committee, McGill University, Montreal, Quebec. The animals were housed in individual cages and were fed standard rodent chow and water ad libitum. Mice weights were measured with a digital balance accurate to 0.05 g and then received QC-199 at the indicated doses either orally, or via i.p. injections or following i.v. slow infusion. In the case of i.v. injection or i.v. infusion, mice were anesthetized using isoflurane-based system (DISPOMED, MODUFLEX COMPACT NRB, 3975-0800-000). For the infusion, a mini pump (NE-1800, New Era Pump Systems, Inc.) was used to infuse the compound via the tail vein during a 2 h period. In one study, blood and brain tissue samples were collected at various time points after administration of QC-199 using EDTA tubing (Das Original S-Monovette EDTA KE/1.2 ml lot.9094102 and Needle for S-Monovette 22G lot. 8073401) via cardiac puncture and immediately stored at 4° C. Serum was collected after the samples were centrifuged 2200×, 4° C. for 20 minutes and stored at −80° C. until analysis. For the brain tissue collection, skin of mice was removed and brain was carefully dissected out from the skull, transferred into a Petri dish, briefly washed with ice-cold phosphate-buffered saline (PBS), and immediately stored at −80° C. until further analysis.
The assay of QC-199 in mouse plasma and brain samples was carried out using qualified LC/MS/MS assay methods.

Setting [3] is: male, CD-1, mouse, in vivo, IV infusion.

Entries after “also recorded” stand apart in the source; their conditions may differ.

`Brc1ccc(CCC2(Cn3ccnc3)OCCO2)cc1.Cl` [QC-56, 1-((2-(2-(4-Bromophenyl)ethyl)-1,3-dioxolan-2-yl)methyl)-1H-imidazole hydrochloride]: in data set [1] (18 h, hHO-1-transfected cells, hydrochloride), the “HO activity in HO-1-transfected astroglia” value was “suppressed to levels akin to those of non-transfected and sham-transfected controls; also recorded: significantly attenuated; also recorded: significantly decreased”. Moreover, in data set [1] (transiently transfected cells), the “expression level of flag-tagged HO-1 protein” value is listed as “without affecting the expression level of flag-tagged HO-1 protein”.

For `Brc1ccc(CCCCn2ccnc2)cc1.Cl` [QC-199, 1-[4-(4-bromophenyl)butyl]-1H-imidazole hydrochloride], in data set [2] (IV infusion), the “AUC_%Extrap_obs” value stood at 37%. In data set [2] (setting [3]), the AUC(0-inf) was determined as 224 µg·h/mL and the Tmax is 3 h. In addition, in data set [2] (male, CD-1, mouse, in vivo, IV infusion, from Lambda z, read-out: T½ (converted)), the half-life is 18 h. Also, the AUC in data set [2] (male, CD-1, mouse, in vivo, IV infusion, read-out: AUCall (0-24 h)) stood at 141 µg·h/mL. Further, the highest level in data set [2] (mouse, 90 min IV infusion, male CD-1 mice) (Cmax) was 8000 ng/mL.

A word on the AUC(0-inf): it is total exposure, with the tail of the curve extrapolated. High values mean high exposure, low ones low exposure. A word on the Tmax: it is the time at which the peak concentration occurs. For orientation: Cmax means the maximum level reached in the sampled fluid or tissue.
